Test results from US20060069132A1, “Azolecarboxamide herbicides” (priority 2004, published 2006).

How the values were obtained:
ducksalad = assay: Test B flooded paddy test; format: in vivo, Heteranthera limosa; conditions: 1000 g ai/ha, scale 0 to 100 (0 no effect, 100 complete control)
In short: (§1)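 Paddy species grown to the 2-leaf stage under flooding; blackgrass sprayed postemergence at 2–18 cm (1- to 4-leaf stage). Plants kept in a greenhouse for 13 to 15 days, then visually rated against controls on 0 (no effect) to 100 (complete control).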

blackgrass = assay: Test B postemergence herbicide test; format: in vivo, Alopecurus myosuroides; conditions: postemergence, visual rating, scale 0 (no effect) to 100 (complete control)
In short: as §1

giant foxtail = assay: Test B pre-/postemergence herbicide test; format: in vivo, Setaria faberi; conditions: for Foxtail, Giant plant response rating: postemergence
In short: (§2)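 Formulation: non-phytotoxic solvent mix with surfactant. Timing: preemergence on seed and postemergence on 2–18 cm plants, applied concurrently. Readout after 13–15 d greenhouse: visual 0–100 control rating against controls.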

lambsquarters = assay: Test B pre-/postemergence herbicide test; format: in vivo, Chenopodium album; conditions: for Lambsquarters plant response rating: postemergence
In short: as §2

Surinam grass = assay: Test B pre-/postemergence herbicide test; format: in vivo, Urochloa decumbens; conditions: for Surinam Grass plant response rating: postemergence
In short: as §2

[1] = tested on: small flower umbrella sedge; assay: Test B flooded paddy test; format: in vivo, Cyperus difformis; conditions: 1000 g ai/ha, scale 0 to 100 (0 no effect, 100 complete control)
In short: as §1

morningglory = assay: Test B pre-/postemergence herbicide test; format: in vivo, Ipomoea coccinea; conditions: for Morningglory plant response rating: postemergence
In short: (§3)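 Test chemicals in a non-phytotoxic solvent mixture with surfactant were applied preemergence to seeded species and postemergence to plants 2-18 cm tall (1- to 4-leaf stage); rice and barnyardgrass were also tested in a flooded paddy at the 2-leaf stage. Visual rating versus controls after 13-15 days in greenhouse, scale 0 (no effect) to 100 (complete control).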

wild oat = assay: Test B postemergence herbicide test; format: in vivo, Avena fatua; conditions: postemergence
In short: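 Read-out: visual comparison with controls, scored 0 to 100, where 100 means complete control and 0 no effect. Formulated chemicals were applied postemergence to plants 2–18 cm tall (1- to 4-leaf), or to flooded-paddy plants at the 2-leaf stage, then held 13 to 15 days under glass.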

corn = assay: Test B pre-/postemergence herbicide test; format: in vivo, Zea mays; conditions: for Corn plant response rating: postemergence
In short: as §2

barnyardgrass = assay: Test B pre-/postemergence herbicide test; format: in vivo, Echinochloa crus-galli; conditions: for Barnyardgrass plant response rating: postemergence, scale 0 (no effect) to 100 (complete control)
In short: as §3

cocklebur = assay: Test B pre-/postemergence herbicide test; format: in vivo, Xanthium strumarium; conditions: for Cocklebur plant response rating: postemergence, scale 0 (no effect) to 100 (complete control)
In short: as §3

velvetleaf = assay: Test B pre-/postemergence herbicide test; format: in vivo, Abutilon theophrasti; conditions: for Velvetleaf plant response rating: postemergence
In short: as §2

rice = assay: Test B flooded paddy test; format: in vivo, Oryza sativa; conditions: 1000 g ai/ha, scale 0 to 100 (0 no effect, 100 complete control)
In short: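 Scale 0–100: zero equals no visible effect, 100 complete control, judged by eye relative to controls. Timing: 13 to 15 days in greenhouse post-treatment. Growth stage at spraying: two leaves (paddy) or one to four leaves, 2–18 cm (postemergence).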

large crabgrass = assay: Test B pre-/postemergence herbicide test; format: in vivo, Digitaria sanguinalis; conditions: for Crabgrass, Large plant response rating: postemergence
In short: as §2

pigweed = assay: Test B pre-/postemergence herbicide test; format: in vivo, Amaranthus retroflexus; conditions: for Pigweed plant response rating: postemergence
In short: as §2

[2] = 125 g ai/ha, 0 = no effect, 100 = complete control, preemergence
[3] = 500 g ai/ha, visual rating, 0 = no effect, 100 = complete control, preemergence
[4] = 125 g ai/ha, visual rating, scale 0 (no effect) to 100 (complete control)
[5] = 500 g ai/ha, scale 0 to 100, 0 is no effect, 100 is complete control

CCn1nc(C(C)(C)C)cc1C(=O)Nc1cc(C(=O)N(C)OC)ccc1F [Compound 244]
10: Blackgrass plant response rating (blackgrass; 125 g ai/ha) | Morningglory plant response rating (morningglory; [4]) | Corn plant response rating (corn; [4]) | Barnyardgrass plant response rating (barnyardgrass; 125 g ai/ha, visual rating) | Crabgrass, Large plant response rating (large crabgrass; [4])
60: Plant response rating, Corn (corn; [3]) | Velvetleaf plant response rating (velvetleaf; [5])
20: Blackgrass plant response rating (blackgrass; 500 g ai/ha) | Foxtail, Giant plant response rating (giant foxtail; [4]) | Surinam Grass plant response rating (Surinam grass; [4]) | Plant response rating, Morningglory (morningglory; [3]) | Morningglory plant response rating (morningglory; [5]) | Plant response rating, Cocklebur (cocklebur; [3])
50: Oat, Wild plant response rating (wild oat; [5]) | Barnyardgrass plant response rating (barnyardgrass; 500 g ai/ha, visual rating) | Pigweed plant response rating (pigweed; [4])
40: Lambsquarters plant response rating (lambsquarters; [4]) | Velvetleaf plant response rating (velvetleaf; [4])
70: Lambsquarters plant response rating (lambsquarters; [5]) | Surinam Grass plant response rating (0 to 100 scale) (Surinam grass; [2]) | Velvetleaf plant response rating (0 to 100 scale) (velvetleaf; [2]) | Pigweed plant response rating (pigweed; [5])
80: Foxtail, Giant plant response rating (0 to 100 scale) (giant foxtail; [2]) | Sedge, Umbrella plant response rating [1] | Barnyardgrass plant response rating (0 to 100 scale) (barnyardgrass; [2]) | Cocklebur plant response rating (cocklebur; 500 g ai/ha, visual rating)
100: Plant response rating, Lambsquarters (lambsquarters; [3]) | Plant response rating, Velvetleaf (velvetleaf; [3]) | Plant response rating, Crabgrass, Large (large crabgrass; [3]) | Plant response rating, Pigweed (pigweed; [3])
90: Ducksalad plant response rating (ducksalad) | Plant response rating, Foxtail, Giant (giant foxtail; [3]) | Lambsquarters plant response rating (0 to 100 scale) (lambsquarters; [2]) | Plant response rating, Surinam Grass (Surinam grass; [3]) | Plant response rating, Barnyardgrass (barnyardgrass; [3]) | Rice plant response rating (rice) | Crabgrass, Large plant response rating (0 to 100 scale) (large crabgrass; [2]) | Pigweed plant response rating (0 to 100 scale) (pigweed; [2])
0: Morningglory plant response rating (0 to 100 scale) (morningglory; [2]) | Cocklebur plant response rating (0 to 100 scale) (cocklebur; [2])
30: Foxtail, Giant plant response rating (giant foxtail; [5]) | Surinam Grass plant response rating (Surinam grass; [5]) | Oat, Wild plant response rating (wild oat; [4]) | Corn plant response rating (0 to 100 scale) (corn; [2]) | Corn plant response rating (corn; [5]) | Cocklebur plant response rating (cocklebur; 125 g ai/ha, visual rating) | Crabgrass, Large plant response rating (large crabgrass; [5])
